From patent US20200080076A1, “Expressed Barcode Libraries and Uses Thereof” (The Broad Institute, Inc., priority 2018, published 2020)

Assays:
OVCAR3 H2B-GFP cells = assay: In vitro platinum-sensitive relapse model, live cell number by time-lapse imaging; type: cell-based; conditions: six days of treatment, FIG. 1C carboplatin 6.25 μM, FIG. 1D cisplatin 50 μM
From the text: FIGS. 1A-1E show the in vitro modeling of non-inherited drug resistance. […] FIGS. 1B-1E show relapse dynamics. Length of drug treatments are indicated as red shaded areas within the graphs. […] While much effort has been focused on experimental models to study the emergence of platinum-resistance (Cunnea & Stronach, Front Oncol 4:81 (2014)), little attention has been given to the development of robust methods to model platinum-sensitive relapse. As the clinical classification of relapse is based both on the effectiveness of the treatment and the time to recurrence, the present study aimed to establish a system that can capture both these aspects. Analogous to the CA125 levels that are used to monitor disease progression in patients, direct measurement of cell number was used to monitor response in vitro. To this end, an OVCAR3 H2B-GFP cell line was generated. OVCAR3 is a commonly used HGSOC model and the H2B-GFP allows the easy quantification of the number of live cells during the course of drug treatment. […] This response was quantified based on time-lapse images and a striking similarity was found between the pattern of platinum-sensitive relapse observed in patients (FIG. 1B), as measured by CA125 levels, and the pattern observed in vitro in this study (FIG. 1C-D). […]

[1] = tested on: Watermelon-transduced PC-9 cells; assay: Sensitivity of Watermelon-transduced PC-9 cells to EGFR-TKIs, number of mCherry objects; type: cell-based; conditions: varying concentrations (FIGS. 6B and 6C)
From the text: FIGS. 6A-6D show the modeling of non-inherited drug resistance of PC-9 cells to EGFR tyrosine kinase inhibitors (EGFR-TKI).

## N.N.O=C([O-])C1(C(=O)[O-])CCC1.[Pt+2] [carboplatin]
OVCAR3 H2B-GFP cells
  response of cells to platinum treatment (number of live cells): the majority of cells died

## N.N.[Cl][Pt][Cl] [cisplatin]
OVCAR3 H2B-GFP cells
  response of cells to platinum treatment (number of live cells): the majority of cells died

## C=CC(=O)Nc1cc(Nc2nccc(-c3cn(C)c4ccccc34)n2)c(OC)cc1N(C)CCN(C)C [osimertinib]
[1]
  sensitivity of cells to EGFR-TKI (number of mCherry objects): sensitive
